Where two headings read alike, the source gives them in different places.
Columns and labels:
Assay in all cases: Post-emergent Test III, herbicidal activity in wheat and barley
Format in all cases: in vivo
[1] = system: APESV: bentgrass (Apera spica-venti)
How it was run: (§1)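 Plants at the second to third true-leaf stage, grown in a greenhouse at about 18/17 °C with a 14 h photoperiod, were sprayed post-emergence at 187 L/ha with the high rate and ½× to 1/16× serial dilutions in an acetone/DMSO/crop-oil/surfactant carrier. Injury was rated visually at 21 d on a 0–100% scale, and GR20–GR90 were derived by probit analysis.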

[2] = system: HORSS: barley, including spring and winter (Hordeum vulgare); settings: for GR20 HORSS: probit analysis, 21 days after application
How it was run: as §1

[3] = system: KCHSC: kochia (Kochia scoparia); settings: for pest or weed control at 35 g/ha: 35 g ai/ha; for pest or weed control at 70 g/ha: 70 g ai/ha
How it was run: as §1

[4] = system: LAMSS
How it was run: as §1

[5] = system: MATSS: scented mayweed (Matricaria chamomilla), pineappleweed (Matricaria matricarioides); settings: for pest or weed control at 35 g/ha: 35 g ai/ha; for pest or weed control at 70 g/ha: 70 g ai/ha
How it was run: as §1

[6] = system: SETVI: green foxtail (Setaria viridis)
How it was run: as §1

[7] = system: TRZSS: wheat, including spring and winter (Triticum aestivum); settings: for GR20 TRZSS: probit analysis, 21 days after application
How it was run: as §1

[8] = system: VERPE: bird's-eye speedwell (veronica persica)
How it was run: as §1

[9] = system: SASKR: Russian thistle (Salsola iberica); settings: Post-emergent Test III
How it was run: as §1

[10] = system: VIOSS: wild pansy (Viola tricolor), field violet (Viola arvensis); settings: Post-emergent Test III
How it was run: as §1

[11] = probit analysis, dose for growth reduction of 50 percent, 21 days after application
[12] = probit analysis, dose for growth reduction of 80 percent, 21 days after application
[13] = dose for growth reduction of 20 percent, crop
[14] = Bassia scoparia, post-emergence, 504 h, read-out: Visual Growth Reduction (%) 21 Days After Application KCHSC
[15] = Matricaria chamomilla, post-emergence, 504 h, read-out: Visual Growth Reduction (%) 21 Days After Application MATSS
[16] = Post-emergent Test III, 35 g ai/ha
[17] = Post-emergent Test III, 70 g ai/ha
[18] = Post-emergent Test III, dose for 20% growth reduction
[19] = Bassia scoparia, post-emergence, 504 h, Post-emergent Test III, read-out: Visual Growth Reduction (%) 21 Days After Application, KCHSC
[20] = Post-emergent Test III, 21 days after application, dose for 20% growth reduction, probit analysis
[21] = Post-emergent Test III, 21 days after application, dose for 50% growth reduction, probit analysis
[22] = Post-emergent Test III, 21 days after application, dose for 80% growth reduction, probit analysis
[23] = Matricaria chamomilla, post-emergence, 504 h, Post-emergent Test III, read-out: Visual Growth Reduction (%) 21 Days After Application, MATSS
[24] = 21 days after application, dose for 20% growth reduction, probit analysis
[25] = 21 days after application, dose for 50% growth reduction, probit analysis
[26] = 21 days after application, dose for 80% growth reduction, probit analysis

Compound: Nc1cc(-c2ccc(Br)c(F)c2F)nc(C(=O)O)c1Cl [Compound 91]
- pest or weed control at 35 g/ha ([1]; Apera spica-venti, post-emergence, 504 h, 35 g ai/ha, read-out: Visual Growth Reduction (%) 21 Days After Application APESV): 45 to 59%
- pest or weed control at 70 g/ha ([1]; Apera spica-venti, post-emergence, 504 h, 70 g ai/ha, read-out: Visual Growth Reduction (%) 21 Days After Application APESV): 45 to 59%
- pest or weed control at 140 g/ha ([1]; Apera spica-venti, post-emergence, 504 h, 140 g ai/ha, read-out: Visual Growth Reduction (%) 21 Days After Application APESV): 60 to 74%
- GR50 APESV [1, 11]: 67 g ai/ha
- GR80 APESV [1, 12]: >140 g ai/ha
- pest or weed control at 35 g/ha ([2]; Hordeum vulgare, post-emergence, 504 h, 35 g ai/ha, read-out: Visual Growth Reduction (%) 21 Days After Application HORSS): 75 to 84%
- pest or weed control at 70 g/ha ([2]; Hordeum vulgare, post-emergence, 504 h, 70 g ai/ha, read-out: Visual Growth Reduction (%) 21 Days After Application HORSS): 75 to 84%
- pest or weed control at 140 g/ha ([2]; Hordeum vulgare, post-emergence, 504 h, 140 g ai/ha, read-out: Visual Growth Reduction (%) 21 Days After Application HORSS): 85 to 94%
- GR20 HORSS [2, 13]: 1 g ai/ha
- pest or weed control at 35 g/ha [3, 14]: 75 to 84%
- pest or weed control at 70 g/ha [3, 14]: 85 to 94%
- pest or weed control at 140 g/ha ([3]; Bassia scoparia, post-emergence, 504 h, 140 g ai/ha, read-out: Visual Growth Reduction (%) 21 Days After Application KCHSC): 85 to 94%
- GR50 KCHSC [3, 11]: 2 g ai/ha
- GR80 KCHSC [3, 12]: 47 g ai/ha
- pest or weed control at 35 g/ha ([4]; post-emergence, 504 h, 35 g ai/ha, read-out: Visual Growth Reduction (%) 21 Days After Application LAMSS): 95 to 100%
- pest or weed control at 70 g/ha ([4]; post-emergence, 504 h, 70 g ai/ha, read-out: Visual Growth Reduction (%) 21 Days After Application LAMSS): 95 to 100%
- pest or weed control at 140 g/ha ([4]; post-emergence, 504 h, 140 g ai/ha, read-out: Visual Growth Reduction (%) 21 Days After Application LAMSS): 95 to 100%
- GR50 LAMSS [4, 11]: 1 g ai/ha
- GR80 LAMSS [4, 12]: 3 g ai/ha
- pest or weed control at 35 g/ha [5, 15]: 60 to 74%
- pest or weed control at 70 g/ha [5, 15]: 75 to 84%
- pest or weed control at 140 g/ha ([5]; Matricaria chamomilla, post-emergence, 504 h, 140 g ai/ha, read-out: Visual Growth Reduction (%) 21 Days After Application MATSS): 85 to 94%
- GR50 MATSS [5, 11]: 11 g ai/ha
- GR80 MATSS [5, 12]: 75 g ai/ha
- pest or weed control at 35 g/ha ([6]; Setaria viridis, post-emergence, 504 h, 35 g ai/ha, read-out: Visual Growth Reduction (%) 21 Days After Application SETVI): 60 to 74%
- pest or weed control at 70 g/ha ([6]; Setaria viridis, post-emergence, 504 h, 70 g ai/ha, read-out: Visual Growth Reduction (%) 21 Days After Application SETVI): 75 to 84%
- pest or weed control at 140 g/ha ([6]; Setaria viridis, post-emergence, 504 h, 140 g ai/ha, read-out: Visual Growth Reduction (%) 21 Days After Application SETVI): 75 to 84%
- GR50 SETVI [6, 11]: 6 g ai/ha
- GR80 SETVI [6, 12]: 105 g ai/ha
- pest or weed control at 35 g/ha ([7]; Triticum aestivum, post-emergence, 504 h, 35 g ai/ha, read-out: Visual Growth Reduction (%) 21 Days After Application TRZSS): 75 to 84%
- pest or weed control at 70 g/ha ([7]; Triticum aestivum, post-emergence, 504 h, 70 g ai/ha, read-out: Visual Growth Reduction (%) 21 Days After Application TRZSS): 85 to 94%
- pest or weed control at 140 g/ha ([7]; Triticum aestivum, post-emergence, 504 h, 140 g ai/ha, read-out: Visual Growth Reduction (%) 21 Days After Application TRZSS): 85 to 94%
- GR20 TRZSS [7, 13]: 1 g ai/ha
- pest or weed control at 35 g/ha ([8]; Veronica persica, post-emergence, 504 h, 35 g ai/ha, read-out: Visual Growth Reduction (%) 21 Days After Application VERPE): 30 to 44%
- pest or weed control at 70 g/ha ([8]; Veronica persica, post-emergence, 504 h, 70 g ai/ha, read-out: Visual Growth Reduction (%) 21 Days After Application VERPE): 30 to 44%
- pest or weed control at 140 g/ha ([8]; Veronica persica, post-emergence, 504 h, 140 g ai/ha, read-out: Visual Growth Reduction (%) 21 Days After Application VERPE): 45 to 59%
- GR50 VERPE [8, 11]: 123 g ai/ha
- GR80 VERPE [8, 12]: >140 g ai/ha

Compound: COC(=O)c1nc(-c2ccc(C(F)(F)F)c(F)c2F)c(F)c(N)c1Cl [Compound 149]
- Visual Growth Reduction (%) 21 Days After Application, HORSS [2, 16]: D (60-74)
- Visual Growth Reduction (%) 21 Days After Application, HORSS [2, 17]: C (75-84)
- GR20 HORSS [2, 18]: 21 g ai/ha
- pest or weed control at 35 g/ha [3, 19]: 30 to 44%
- pest or weed control at 70 g/ha [3, 19]: 60 to 74%
- GR20, KCHSC [3, 20]: 18 g ai/ha
- GR50 KCHSC [3, 21]: 56 g ai/ha
- GR80 KCHSC [3, 22]: >140 g ai/ha
- pest or weed control at 35 g/ha [5, 23]: 45 to 59%
- pest or weed control at 70 g/ha [5, 23]: 60 to 74%
- GR20, MATSS [5, 20]: 9 g ai/ha
- GR50 MATSS [5, 21]: 38 g ai/ha
- GR80 MATSS [5, 22]: >140 g ai/ha
- Visual Growth Reduction (%) 21 Days After Application, SASKR ([9]; 35 g ai/ha): D (60-74)
- Visual Growth Reduction (%) 21 Days After Application, SASKR ([9]; 70 g ai/ha): D (60-74)
- GR20, SASKR [9, 24]: 6 g ai/ha
- GR50 SASKR [9, 25]: 24 g ai/ha
- GR80 SASKR [9, 26]: 100 g ai/ha
- Visual Growth Reduction (%) 21 Days After Application, TRZSS [7, 16]: E (45-59)
- Visual Growth Reduction (%) 21 Days After Application, TRZSS [7, 17]: C (75-84)
- GR20 TRZSS [7, 18]: 20 g ai/ha
- Visual Growth Reduction (%) 21 Days After Application, VIOSS ([10]; 35 g ai/ha): F (30-44)
- Visual Growth Reduction (%) 21 Days After Application, VIOSS ([10]; 70 g ai/ha): D (60-74)
- GR20, VIOSS [10, 24]: 11 g ai/ha
- GR50 VIOSS [10, 25]: 44 g ai/ha
- GR80 VIOSS [10, 26]: >140 g ai/ha
